The CheMixHub ionic liquid set

Assay: xn = mol fraction of the nth substance listed

CCOS(=O)(=O)[O-].CC[NH+]=C(N(C)C)N(C)C + CCCO
100 kPa, x2 = 0
Conditions	viscosity [mPa·s]
293.15 K	670
323.15 K	91

C[C@H](N)C(=O)[O-].C[N+](C)(C)CCO + CCCO
100 kPa
Conditions	viscosity [mPa·s]
287.96 K, x1 = 0.0997	7.8
287.99 K, x1 = 0.2007	22.8
288.02 K, x1 = 0.3915	119
288.03 K, x1 = 0.6939	910
288.04 K, x1 = 0.6047	540
288.05 K, x1 = 0.7915	1505
288.06 K, x1 = 0.506	267
288.07 K, x1 = 0.9049	2669
288.08 K, x1 = 0.2998	53
288.1 K, x1 = 1	5100
289.23 K, x1 = 0.0997	7.7
289.24 K, x1 = 0.2007	22.2
289.26 K, x1 = 0.3915	114
289.28 K, x1 = 0.6939	850
289.29 K, x1 = 0.6047	510
289.3 K, x1 = 0.7915	1387
289.31 K, x1 = 0.506	251
289.31 K, x1 = 0.9049	2464
289.32 K, x1 = 0.2998	51
289.96 K, x1 = 1	3700
290.21 K, x1 = 1	4300
290.49 K, x1 = 0.0997	7.5
290.5 K, x1 = 0.2007	21.3
290.51 K, x1 = 0.3915	107
290.52 K, x1 = 0.6047	470
290.52 K, x1 = 0.6939	770
290.53 K, x1 = 0.506	231
290.53 K, x1 = 0.7915	1251
290.53 K, x1 = 0.9049	2210
290.54 K, x1 = 0.2998	49
291.71 K, x1 = 0.0997	7.2
291.72 K, x1 = 0.2007	20.4
291.72 K, x1 = 0.3915	99
291.73 K, x1 = 0.2998	46
291.73 K, x1 = 0.506	214
291.73 K, x1 = 0.6047	430
291.73 K, x1 = 0.6939	700
291.73 K, x1 = 0.7915	1121
291.73 K, x1 = 0.9049	1968
292.02 K, x1 = 1	3052
292.32 K, x1 = 1	3520
292.9 K, x1 = 0.0997	6.9
292.91 K, x1 = 0.2007	19.6
292.91 K, x1 = 0.2998	43
292.91 K, x1 = 0.3915	93
292.91 K, x1 = 0.6047	391
292.92 K, x1 = 0.506	199
292.92 K, x1 = 0.6939	640
292.92 K, x1 = 0.7915	1017
292.92 K, x1 = 0.9049	1771
294.08 K, x1 = 1	2544
294.09 K, x1 = 0.0997	6.7
294.09 K, x1 = 0.2007	18.8
294.09 K, x1 = 0.2998	41
294.09 K, x1 = 0.3915	86
294.09 K, x1 = 0.506	185
294.09 K, x1 = 0.6047	358
294.09 K, x1 = 0.9049	1589
294.1 K, x1 = 0.6939	580
294.1 K, x1 = 0.7915	920
294.41 K, x1 = 1	2896
295.27 K, x1 = 0.0997	6.5
295.27 K, x1 = 0.2007	18
295.27 K, x1 = 0.2998	38.9
295.27 K, x1 = 0.3915	81
295.27 K, x1 = 0.506	172
295.27 K, x1 = 0.6047	329
295.27 K, x1 = 0.6939	530
295.27 K, x1 = 0.7915	840
295.27 K, x1 = 0.9049	1438
296.14 K, x1 = 1	2140
296.45 K, x1 = 0.0997	6.3
296.45 K, x1 = 0.2007	17.3
296.45 K, x1 = 0.2998	36.9
296.45 K, x1 = 0.3915	76
296.45 K, x1 = 0.506	160
296.45 K, x1 = 0.6047	302
296.45 K, x1 = 0.6939	490
296.45 K, x1 = 0.7915	760
296.45 K, x1 = 0.9049	1298
296.48 K, x1 = 1	2402
297.63 K, x1 = 0.0997	6.1
297.63 K, x1 = 0.2007	16.6
297.63 K, x1 = 0.2998	35
297.63 K, x1 = 0.3915	71
297.63 K, x1 = 0.506	149
297.63 K, x1 = 0.6047	278
297.63 K, x1 = 0.6939	450
297.63 K, x1 = 0.7915	700
297.63 K, x1 = 0.9049	1174
298.2 K, x1 = 1	1806
298.54 K, x1 = 1	2000
298.8 K, x1 = 0.0997	6
298.8 K, x1 = 0.2007	16
298.8 K, x1 = 0.2998	33.4
298.8 K, x1 = 0.3915	67
298.8 K, x1 = 0.6047	257
298.81 K, x1 = 0.506	140
298.81 K, x1 = 0.6939	410
298.81 K, x1 = 0.7915	640

CCCC[N+](CCCC)(CCCC)CCCC.N#C[S-] + CCCOCC(C)O
electrical conductivity [S/m], 101 kPa
Conditions	248.15 K	258.15 K	268.15 K	278.15 K	288.15 K	298.15 K	308.15 K	313.15 K
x1 = 0.01119	0.0011	0.00185	0.00285	0.00405	0.00541	–	0.00829	0.00901
x1 = 0.01571	0.00157	0.00271	0.00425	0.00618	0.00842	0.01082	0.01352	0.01485
x1 = 0.01893	0.0019	0.00331	0.00526	0.00773	0.01064	0.01386	0.01748	0.01934
x1 = 0.02277	0.00227	0.00401	0.00644	0.00956	0.01332	0.01758	0.02234	0.02493
x1 = 0.02903	0.00284	0.00511	0.00834	0.01257	0.01775	0.02385	0.03061	0.03428
x1 = 0.03808	0.00356	0.00652	0.01082	0.01658	0.02379	0.03253	0.04237	0.04779
x1 = 0.04326	0.0039	0.00723	0.01211	0.01864	0.02705	0.0372	0.04875	0.0548
x1 = 0.06196	0.00476	0.00908	0.01564	0.02482	0.03669	0.05153	0.06887	0.07879
x1 = 0.07662	0.00504	0.00979	0.01722	0.02776	0.04173	0.05942	0.0805	0.09266
x1 = 0.09291	0.005	0.00994	0.01782	0.02925	0.04479	0.06473	0.08902	0.1031
x1 = 0.1099	0.00469	0.00956	0.01751	0.02928	0.04564	0.06699	0.09343	0.109
x1 = 0.1312	0.00408	0.00857	0.01611	0.02768	0.04408	0.06606	0.09376	0.1103
x1 = 0.1458	0.0036	0.00773	0.01481	0.02593	0.0419	0.06371	0.09151	0.1083

CCC[N+](C)(C)C.O=S(=O)([N-]S(=O)(=O)C(F)(F)F)C(F)(F)F + CCC[N+]1(C)CCCC1.O=S(=O)([N-]S(=O)(=O)C(F)(F)F)C(F)(F)F
101.3 kPa
Conditions	viscosity [mPa·s]
283.15 K, x1 = 0.4	135
283.15 K, x1 = 0.6	148
283.15 K, x1 = 1	179
288.15 K, x1 = 0.6	113
288.15 K, x1 = 1	133
293.15 K, x1 = 0.4	81
303.15 K, x1 = 0.8	59
308.15 K, x1 = 0.2	42.2
308.15 K, x1 = 0.6	46.1
313.15 K, x1 = 0.6	38.2
318.15 K, x1 = 0.8	33.4
323.15 K, x1 = 0.8	28.3
323.15 K, x1 = 1	29.5
328.15 K, x1 = 0.2	22
328.15 K, x1 = 0.4	22.2
328.15 K, x1 = 0.8	24.2
333.15 K, x1 = 0.2	19.1
333.15 K, x1 = 0.4	19.3
333.15 K, x1 = 0.6	20.3
333.15 K, x1 = 1	21.7
343.15 K, x1 = 0.4	14.9
348.15 K, x1 = 0.4	13.3
353.15 K, x1 = 0.2	11.8
353.15 K, x1 = 0.6	12.3

CCC[N+](C)(C)C.O=S(=O)([N-]S(=O)(=O)C(F)(F)F)C(F)(F)F + CCC[N+]1(C)CCCCC1.O=S(=O)([N-]S(=O)(=O)C(F)(F)F)C(F)(F)F
101.3 kPa
Conditions	viscosity [mPa·s]
283.15 K, x1 = 0.6	248
283.15 K, x1 = 0.8	201
293.15 K, x1 = 0.6	134
293.15 K, x1 = 0.8	113
308.15 K, x1 = 0.4	71
308.15 K, x1 = 0.6	64
313.15 K, x1 = 0.8	45.9
318.15 K, x1 = 0.4	46.4
318.15 K, x1 = 0.6	42.3
343.15 K, x1 = 0.4	20.2
343.15 K, x1 = 0.8	17.5
348.15 K, x1 = 0.8	15.4
348.15 K, x1 = 1	14.6

CC(=O)[O-].CC[n+]1ccn(C)c1 + CCO
Conditions	electrical conductivity [S/m]	viscosity [mPa·s]
278.15 K, 101 kPa, x2 = 0.201	–	264
278.15 K, 101 kPa, x2 = 0.9	–	3.396
288.15 K, 101 kPa, x2 = 0	–	284
288.15 K, 101 kPa, x2 = 0.1	–	206.6
288.15 K, 101 kPa, x2 = 0.8	–	5.15
293.15 K, 101.3 kPa, x2 = 0	0.243	–
293.15 K, 101.3 kPa, x2 = 0.0733	0.247	–
293.15 K, 101.3 kPa, x2 = 0.1229	0.269	–
293.15 K, 101.3 kPa, x2 = 0.2965	0.433	–
293.15 K, 101.3 kPa, x2 = 0.4286	0.63	–
293.15 K, 101.3 kPa, x2 = 0.5373	0.991	–
293.15 K, 101.3 kPa, x2 = 0.7309	1.447	–
293.15 K, 101.3 kPa, x2 = 0.7625	1.539	–
293.15 K, 101.3 kPa, x2 = 0.7754	1.615	–
293.15 K, 101.3 kPa, x2 = 0.8081	1.329	–
293.15 K, 101.3 kPa, x2 = 0.8897	0.71	–
293.15 K, 101.3 kPa, x2 = 0.9163	0.505	–
293.15 K, 101.3 kPa, x2 = 0.9299	0.404	–
293.15 K, 101.3 kPa, x2 = 0.9383	0.335	–
293.15 K, 101.3 kPa, x2 = 0.9494	0.252	–
298.15 K, 101 kPa, x2 = 0.4002	–	31.8
298.15 K, 101 kPa, x2 = 0.5001	–	20.04
298.15 K, 101 kPa, x2 = 0.8666	–	2.67
308.15 K, 101 kPa, x2 = 0.2999	–	32.06
308.15 K, 101 kPa, x2 = 0.6	–	9.27
308.15 K, 101 kPa, x2 = 0.8	–	3.398
313.15 K, 101 kPa, x2 = 0.1059	–	43.5
313.15 K, 101 kPa, x2 = 0.2471	–	28.5
313.15 K, 101 kPa, x2 = 0.5572	–	9.24
313.15 K, 101 kPa, x2 = 0.7494	–	3.89
318.15 K, 101 kPa, x2 = 0.1	–	39.7
318.15 K, 101 kPa, x2 = 0.201	–	29.99
318.15 K, 101 kPa, x2 = 0.2999	–	22.19
318.15 K, 101 kPa, x2 = 0.4002	–	15.76
318.15 K, 101 kPa, x2 = 0.6	–	7.27
318.15 K, 101 kPa, x2 = 0.9	–	1.591
328.15 K, 101 kPa, x2 = 0	–	30.3
328.15 K, 101 kPa, x2 = 0.7	–	3.833
338.15 K, 101 kPa, x2 = 0	–	21.85
338.15 K, 101 kPa, x2 = 0.8	–	2.049
343.15 K, 101 kPa, x2 = 0.1059	–	14.96
343.15 K, 101 kPa, x2 = 0.3504	–	8.69
343.15 K, 101 kPa, x2 = 0.4165	–	7.31
